Data taken from US7423020B2, “Treatment of mood disorders by administration of SMR1” (Institut Pasteur, priority 2001, dated 2008).
“And” between values parts separate entries of the source, which are not always exact repeats. Identical values can stand only once. “Also recorded” adds a separate entry of the source. Where a SMILES comes first, the peptide text is derived from it.

What was measured:
[1] = target: T1, NEP (Rattus norvegicus, UniProt P07861); test: 3H-Substance P hydrolysis by rat spinal cord membrane preparations; format: biochemical
T1 construct: incubations of membrane and fresh tissue slice preparations from nervous tissues; from tissue; host or cells: rat spinal cord (dorsal zone), fresh slices or 100 000 x g membrane fraction
T1 sequence (P07861 1-750): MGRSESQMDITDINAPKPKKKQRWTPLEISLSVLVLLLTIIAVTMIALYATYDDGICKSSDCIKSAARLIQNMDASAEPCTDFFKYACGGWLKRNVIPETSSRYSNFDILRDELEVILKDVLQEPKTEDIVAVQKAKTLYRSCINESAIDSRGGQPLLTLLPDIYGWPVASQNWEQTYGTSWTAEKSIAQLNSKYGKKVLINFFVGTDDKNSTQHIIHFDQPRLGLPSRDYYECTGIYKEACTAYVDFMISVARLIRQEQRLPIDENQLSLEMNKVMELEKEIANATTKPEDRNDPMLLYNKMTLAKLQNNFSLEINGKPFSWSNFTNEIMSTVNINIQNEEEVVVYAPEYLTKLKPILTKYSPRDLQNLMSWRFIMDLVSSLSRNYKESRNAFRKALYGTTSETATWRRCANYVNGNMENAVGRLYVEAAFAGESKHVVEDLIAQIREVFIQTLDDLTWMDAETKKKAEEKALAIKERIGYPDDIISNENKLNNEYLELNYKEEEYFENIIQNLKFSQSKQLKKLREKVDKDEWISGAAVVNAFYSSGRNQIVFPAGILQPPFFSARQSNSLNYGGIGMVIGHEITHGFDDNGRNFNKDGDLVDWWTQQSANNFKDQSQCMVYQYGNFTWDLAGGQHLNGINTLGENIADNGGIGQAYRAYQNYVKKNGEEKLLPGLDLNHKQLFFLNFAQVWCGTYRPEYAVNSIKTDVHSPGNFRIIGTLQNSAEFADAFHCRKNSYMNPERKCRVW
Protocol: The organs dissected out and washed in ice-cold KRBG are homogenized at 4° C. in 10 volumes (vol./wt.) of 50 mM Tris/HCl buffered at pH 7.2, using a Teflon-glass homogenizer (3×5 sec.). A first centrifugation of 5 min. at 1000×g and 4° C. makes it possible to remove the tissular debris and the nuclei in the pellet. A second centrifugation of the supernatant at 100 000×g and 5° C. concentrates the membrane fraction into the pellet, which will be superficially washed three times with cold Tris/HCl buffer and resuspended in fresh buffer using a Kontes homogenizer, aliquoted and stored at -80° C. while waiting to be used as enzyme source, at least until three months. For the experiments of analysis of the NEP peptidase activity, an ex vivo model using incubations of membrane and fresh tissue slice preparations from nervous tissues that are known to be appropriate for exploring NEP peptidase activity: i.e. the dorsal zone of rat spinal cord, was first developed. The metabolism rate of the NEP-sensitive peptides was measured using the both NEP substrates involved in the signaling of the nociceptive response: the neuropeptides Met-enkephalin and Substance P. […] (NEN, 12.5-25 nM) were used. The objective was to measure the NEP-specific endoproteolysis of these substrates. […] The radioactivity of eluted and isolated compounds is determined by liquid scintillation spectrometry.

[2] = target: T2, purified rabbit kidney NEP (Oryctolagus cuniculus, UniProt P08049); test: Direct interaction with purified rabbit kidney NEP in vitro; format: binding
T2 construct: using purified rabbit kidney NEP; from tissue; host or cells: rabbit kidney
T2 sequence (P08049 1-750): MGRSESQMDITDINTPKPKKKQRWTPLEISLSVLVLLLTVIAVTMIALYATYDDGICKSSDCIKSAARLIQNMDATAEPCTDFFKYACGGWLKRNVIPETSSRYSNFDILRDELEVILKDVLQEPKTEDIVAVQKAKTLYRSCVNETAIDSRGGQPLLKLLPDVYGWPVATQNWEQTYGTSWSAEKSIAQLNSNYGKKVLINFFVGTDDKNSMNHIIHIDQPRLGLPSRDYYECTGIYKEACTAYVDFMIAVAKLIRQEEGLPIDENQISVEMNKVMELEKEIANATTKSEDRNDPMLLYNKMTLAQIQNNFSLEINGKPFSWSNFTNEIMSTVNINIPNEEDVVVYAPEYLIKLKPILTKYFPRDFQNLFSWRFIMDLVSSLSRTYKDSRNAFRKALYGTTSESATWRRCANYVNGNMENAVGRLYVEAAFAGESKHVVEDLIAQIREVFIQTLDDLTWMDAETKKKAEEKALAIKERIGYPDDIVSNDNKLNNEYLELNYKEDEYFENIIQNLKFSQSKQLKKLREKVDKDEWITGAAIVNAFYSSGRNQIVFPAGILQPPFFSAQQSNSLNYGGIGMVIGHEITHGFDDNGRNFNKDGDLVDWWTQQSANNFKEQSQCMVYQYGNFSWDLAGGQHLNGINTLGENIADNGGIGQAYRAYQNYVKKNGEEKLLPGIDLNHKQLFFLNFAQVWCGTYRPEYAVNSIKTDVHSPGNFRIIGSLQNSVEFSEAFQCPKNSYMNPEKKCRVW

[3] = Tissue uptake of SMR1-Pentapeptide in vivo; parameters: species or system rat
[4] = tested on: adult male rats; conditions: PCT patent application WO 01/00 221; cited from earlier work

IC50 ([1]; 3H-Substance P 12.5 nM, 10 min at 25° C., read-out: IC50 (concentration reducing by half the degradation of 3H-substance P) (converted)): ~100 nM and 100 nM
SMILES: N=C(N)NCCC[C@H](NC(=O)[C@@H]1CCCN1C(=O)[C@H](CC(N)=O)NC(=O)[C@H](Cc1c[nH]cn1)NC(=O)[C@@H](N)CCC(N)=O)C(=O)O [SMR1-QHNPR, QHNPR] (H-QHNPR-OH; N-terminus and C-terminus assumed)
protection of Substance P / NEP inhibitory potency compared with reference inhibitors ([1]; FIG. 3-B): equivalent to that obtained with Phosphoramidon; also recorded: equivalent to that of two well-known NEP-specific inhibitors, Thiorphan and Phosphoramidon
direct interaction with NEP [2]: direct interaction of rat kidney NEP and SMR1-Pentapeptide was demonstrated
stability of tissue uptake [3]: pharmacokinetically and biochemically stable in vivo
effect on sexual behavior and aggressive impulse behavior [4]: dose-dependent improvement on the sexual behavior of adult male rats with a loss of the aggressive impulse behavior
